From US20160102066A1, “BENZOTHIAZOLE DERIVATIVE AND ANTI-TUMOR USE THEREOF” (YANTAI UNIVERSITY, priority 2014, published 2016)

Test system: prostate cancer RM-1 transplanted tumor
Assay: mice prostate cancer RM-1 transplanted tumor, in vivo
Details: male C57/BL6 mice, i.p., Docetaxel 10 mg/kg × 3, 1-1 100 mg/kg × 4
Protocol: The experiment procedures are summarized as follows: mice who had prostate cancer RM-1 and grown well were sacrificed by cervical dislocation. Under sterile conditions, tumor mass growing well was stripped off, homogenized, diluted with physiological saline in 1:4. Each mouse was inoculated 0.2 mL of the tumor solution in the armpit and back (approximately 2*10^6 cells). On the next day; the animals were randomized into groups and the administration began. […] The dosing volume was 0.1 mL/10 g. At the same time, docetaxel control group and solvent control group were set. As for the docetaxel group, the animals were administered by intraperitoneal injection at 10 mg/kg dose, the dosing volume was 0.1 mL/10 g. After continuous administration for 10 days, the animals were sacrificed by cervical dislocation, weighed the body and the tumor, respectively. Inhibition rate of tumor growth (%) was calculated, and the results were statistically processed.

CC(=O)O[C@@]12CO[C@@H]1C[C@H](O)[C@@]1(C)C(=O)[C@H](O)C3=C(C)[C@@H](OC(=O)[C@H](O)[C@@H](NC(=O)OC(C)(C)C)c4ccccc4)C[C@@](O)([C@@H](OC(=O)c4ccccc4)[C@H]21)C3(C)C [Docetaxel, docetaxel]
Tumor weight: 1.77 ± 0.61 g
body weight of Animals, Final (at sacrifice): 18.43 ± 2.17 g
body weight of Animals, Initial (baseline): 20.00 ± 1.07 g
Inhibition rate of tumor growth (versus solvent control): 32%
